The source of these data is US6613308B2, “Pulmonary delivery in treating disorders of the central nervous system” (Advanced Inhalation Research, Inc., priority 2000, dated 2003).

Data set [1] is described as follows: in vivo. To be noted: Sprague Dawley, rat, 7 mg powder.
The conditions of data set [2]: cited from earlier work.
Data set [3] is described as follows: in vivo. To be noted: rat; for bioavailability / bioavailability at 15 min / bioavailability at 60 min: 2 mg. The protocol:
Determinations of plasma levels of L-Dopa were made following IV injection, oral gavage, or insufflation into the lungs. Carbidopa generally is administered to ensure that peripheral decarboxylase activity is completely shut down. In this example, animals received an intraperitoneal (IP) injection of the peripheral decarboxylase inhibitor carbidopa (200 mg/kg) 1 hour prior to administration of L-Dopa. Under ketamine anesthesia, the animals were divided into 3 groups. In the first group of animals, L-Dopa (2 mg) was suspended in saline containing 1% methylcellulose and 1% ascorbic acid and given via oral gavage. In the second group, an insufflation technique was used for pulmonary administration of particles including L-Dopa (20% loading density). A laryngoscope was used to visualize the rat's epiglottis and the blunt-tip insufflation device (PennCentury Insufflation powder delivery device) was inserted into the airway. A bolus of air (3 cc), from an attached syringe, was used to delivery the pre-loaded powder from the chamber of the device into the animal's lungs. A total of 10 mg of powder (2 mg L-Dopa) was delivered. In the third group, a previously-placed femoral cannula was used to delivery a bolus (2-3 second) of L-Dopa (2 mg). Blood samples (200 μL) were withdrawn from each animal using the femoral cannula at the following timepoints: 0 (immediately prior to L-Dopa administration), 2, 5, 15, 30, 60, 120, and 240 minutes following L-Dopa administration. All samples were processed for L-Dopa determinations using HPLC.
Bioavailability was estimated by performing area under the curve (AUC) calculations.

Data set [4] has as its system rat model of Parkinson's disease (unilateral 6-OHDA lesion). Put plainly: Bracing task. In kind it is in vivo.
The test system is the same in data set [5]. The data set can be described thus: Placing task. In kind it is in vivo.
The test system is the same in data set [6]. Put plainly: Akinesia task. Format: in vivo.
Data set [7] shares this test system. The data set can be described thus: Rotation test. In kind it is in vivo. How it is done: Animals also were tested on a standard pharmacodynamics rotation test known to be a sensitive and reliable measure of dopamine activity in the brain. […] These doses were chosen for this test because they represent the doses of L-Dopa shown to produce maximal efficacy in the previous functional tests. Following dosing, animals were placed into a cylindrical Plexiglas bucket. […] Animals were also tested for rotation behavior with and without pre-treatment with carbidopa. […] Because the dopamine depletions are unilateral, the uninjected side remained intact and still able respond to changes in dopamine activity. When these animals were injected with a dopamine agonist (i.e. L-Dopa) brain dopamine activity was stimulated preferentially on the intact side. […] The onset and number of rotations provided a measure of both the time course as well as the extent of increased dopamine activity.

A further data set relates to migraine. To be noted: cited from earlier work.
For data set [8] the following is noted: cited from earlier work. The source holds these as a separate data set.

In the data set “in vivo [1]”, `CC(C(=O)O)c1cccc(C(=O)c2ccccc2)c1` (centres unmarked) [Ketoprofen] yielded a concentration at 5 min of 9600 ng/mL, a concentration at 15 min of 7600 ng/mL, a concentration at 30 min of 5500 ng/mL and a concentration at 60 min of 4500 ng/mL. In the data set “in vivo [1]”, this compound returned a concentration at 120 min of 2400 ng/mL, a concentration at 240 min of 1800 ng/mL, a concentration at 360 min of 1800 ng/mL and a concentration at 480 min of 1300 ng/mL. Also, in the data set “in vivo [1]” (po), the concentration at 5 min turned out to be 1700 ng/mL, the concentration at 15 min was found to be 2100 ng/mL, the concentration at 30 min worked out at 1900 ng/mL and the concentration at 60 min came to 2000 ng/mL. Further, in the data set “in vivo [1]” (po), the concentration at 120 min was 1700 ng/mL, the concentration at 240 min was 1400 ng/mL, the concentration at 360 min came out at 1000 ng/mL and the concentration at 480 min stood at 1000 ng/mL. The “Tmax via the oral route” value in [2] (oral) is “about 90 min”.

Regarding `N[C@@H](Cc1ccc(O)c(O)c1)C(=O)O` [L-Dopa, levodopa], in “in vivo [3]”, the concentration at 2 min was found to be 5000 ng/mL; the bioavailability (usually the share of a dose that reaches the circulation, judged against a reference dose that is usually intravenous) was ~75%; the bioavailability at 15 min stood at 38%; the bioavailability at 60 min turned out to be 62%. In the data set “in vivo [3]” (po), the concentration at 2 min turned out to be 1000 ng/mL, the bioavailability turned out to be 33%, the bioavailability at 15 min was 9% and the bioavailability at 60 min was found to be 24%. Further, in data set [4] (oral 30 mg/kg), the “time of maximal effects” value was ≤ 60 min and the “time to improved performance” value was ≤ 30 min. Besides, in data set [4] (pulmonary), the “lowest dose with statistically significant improvements” value is 0.5 mg, the “time of peak benefits” value lay within 15 to 30 min and the “time to significant improvements” value is ≤ 10 min. Moreover, the “difference in drug required for equivalent efficacy, oral vs pulmonary” value in [5] (30 mg/kg oral vs 1 mg pulmonary, normalized by body weight) was ~10 fold. Moreover, the “time of maximal effects” value in data set [5] (oral 20 mg/kg) came to 60 min. In data set [5] (oral 30 mg/kg), the “time of peak performance” value fell in the range of 1 to 2 h and the “time to improved performance with impaired limb” value was ≤ 30 min. In addition, the “lowest dose with significant improvements” value in data set [5] (pulmonary) is 0.5 mg. In data set [5] (pulmonary, highest dose tested), the “time of peak benefits” value fell in the range of 15 to 30 min and the “time to significant improvements” value was ≤ 10 min. Further, in data set [6] (oral 30 mg/kg), the “time of maximal effects” value was ≤ 60 min and the “time to improved performance” value was ≤ 30 min. In addition, in [6] (pulmonary), the “lowest dose with statistically significant (p<0.05) improvements” value is listed as 1.0 mg, the “time of peak benefits” value fell in the range of 15 to 30 min and the “time to significant improvements” value was ≤ 10 min. In [7] (oral 30 mg/kg), the “time of peak rotations” value was “approximately 30 minutes”. For the same compound, in data set [7] (oral 30 mg/kg, carbidopa pre-treatment), the “rotations during the first 10-15 minutes” value is listed as < 5 rotations/animal. In [7] (pulmonary 2 mg total), the “time of peak rotations” value fell in the range of 25 to 30 min. The “rotations relative to oral delivery within the first 10-15 minutes” value in data set [7] (pulmonary 2 mg total vs oral 30 mg/kg) was “greater than 3 times”.

Regarding `CNS(=O)(=O)Cc1ccc2[nH]cc(CCN(C)C)c2c1` [sumatriptan], in the data set with migraine (administered intravenously (IV)), the efficacy rate is recorded as 90%. In addition, the efficiency rate entry with migraine (oral form) is “approximately 60%”.

Take `Cc1nnc2n1-c1ccc(Cl)cc1C(c1ccccc1Cl)=NC2` [triazolam]: the solubility in alcohol result in [8] (alcohol) is reported as “soluble”. Further, in data set [8] (water), the solubility in water result is recorded as “poorly soluble”.

In the case of `Cc1ccc(-c2nc3ccc(C)cn3c2CC(=O)N(C)C)cc1` [zolpidem], in data set [2] (5 mg tablet), the Tmax (usually the time at which the peak concentration occurs) is 1.6 h and the “½ Life” value is 2.6 h. In addition, in data set [2] (in vivo), the “time to peak plasma levels” value is “about 2 hours”.
